In general, EC50 refers to the concentration that produces a half-maximal response. For orientation: GI50 means the concentration giving 50% growth inhibition.

Where a name gives a salt, the structure may show the parent alone.

Data set [1] concerns the target T1, REV-ERBα (Homo sapiens, UniProt P20393).
T1 sequence (P20393 284-614 limits assumed): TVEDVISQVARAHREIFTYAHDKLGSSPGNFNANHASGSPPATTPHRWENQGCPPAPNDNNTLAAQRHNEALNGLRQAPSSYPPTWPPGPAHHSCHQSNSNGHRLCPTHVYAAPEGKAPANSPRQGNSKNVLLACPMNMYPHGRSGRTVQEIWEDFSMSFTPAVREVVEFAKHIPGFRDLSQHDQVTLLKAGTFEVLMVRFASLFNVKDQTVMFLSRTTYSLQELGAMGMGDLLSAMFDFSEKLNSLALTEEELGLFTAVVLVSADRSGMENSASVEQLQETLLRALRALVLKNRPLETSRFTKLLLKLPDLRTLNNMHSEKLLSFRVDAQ
As to conditions: literature; cited from earlier work.

For data set [2] the following is noted: cited from earlier work; for pharmacokinetic properties: literature; for metabolic clearance: in vivo, Solt et al., Nature, 2012.
In data set [3] the target is T2, LXRα (Homo sapiens, UniProt Q13133).
T2 sequence (Q13133 1-447): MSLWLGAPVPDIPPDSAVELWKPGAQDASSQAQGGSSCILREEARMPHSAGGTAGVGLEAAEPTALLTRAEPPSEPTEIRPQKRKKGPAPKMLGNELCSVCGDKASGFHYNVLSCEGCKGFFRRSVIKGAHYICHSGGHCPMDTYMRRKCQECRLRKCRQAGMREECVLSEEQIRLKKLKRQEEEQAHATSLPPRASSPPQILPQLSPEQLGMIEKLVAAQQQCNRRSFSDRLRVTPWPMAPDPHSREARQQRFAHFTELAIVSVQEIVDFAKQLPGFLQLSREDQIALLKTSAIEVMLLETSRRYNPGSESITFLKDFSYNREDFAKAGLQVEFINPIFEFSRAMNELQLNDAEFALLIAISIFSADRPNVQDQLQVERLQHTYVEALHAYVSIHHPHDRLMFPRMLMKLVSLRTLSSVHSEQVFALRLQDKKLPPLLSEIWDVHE
As to conditions: Trump et al., J. Med. Chem., 2013; cited from earlier work.

For data set [4], the system named is REV-ERB. Put plainly: Luciferase-based assay of REV-ERB mediated transcriptional regulation (RevRE/SV40-CLuc reporter in HEK-293 cells). In kind it is cell-based. The settings on record: HEK-293 cells transfected with RevRE reporter and REV-ERBα and/or β; read 24 h post-transfection; read-out: REV-ERB antagonism EC50. An excerpt: Luciferase-Base Assay to Assess the Activity of the Compounds on REV-ERB Mediated Transcriptional Regulation
In order to assess the effect of the compounds of the invention on REV-ERB activity the inventors exploited the ability of REV-ERB to repress gene transcription of a specific DNA cis-element. In fact, the DNA binding domain (DBD) of REV-ERB recognizes specific DNA sequences (called RevREs=Rev-erb Responsive Elements) which contains an AGGTCA motif linked in 5′ to an A/T rich sequence harboring the following consensus: A/T A A/T N T (Harding et al., Mol Cell Biol., 1993; 13:3113).
Therefore, two repetitions of the RevRE consensus AGAATGTAGGTCA (SEQ ID NO: 13) upstream a SV40 promoter driving the expression of a reporter gene were cloned. As reported, the luciferase enzyme from the ostracod Cypridina noctiluca was adopted. […] Cypridina luciferase (CLuc) is secreted from cells by virtue of its natural signal peptide and its luminescence can be measured from the supernatant of transfected cells. Therefore, cell lysis is not necessary. Secreted CLuc is a very stable protein. Because of this property, the activity measured from the supernatant reflects the amount of protein accumulated up to the time of sampling. Multiple samples can therefore be obtained from the same transfected cells, allowing an easy set-up of time-course experiments. In addition, the direct use of the supernatant makes the system easily prone to automation for High Throughput Screening.
In order to normalize the experiment for the transfection efficiency, it was used a plasmid containing a SV40 promoter driving the expression of a secreted form of human alkaline phosphatase (SEAP), which enzymatic activity in the supernatant can be measured with chemiluminescence substrates.
To be able to rule out false-positive, for example due to the interference of the compounds to be tested with the fluorescence and/or chemiluminescence reactions, it was used as control a mutated version of the RevRE (GAGCCCGTAGGTCA) (SEQ ID NO: 14) that is no longer able to bind REV-ERB DBD (Harding et al., Mol Cell Biol., 1993; 13:3113).
The person skilled in the art will appreciate that an agonist will improve the ability of REV-ERB to repress the transcription, reducing the luminescence signal, while an antagonist will produce the opposite effect.
For the assay, HEK-293 cells were transfected with the reporter vectors and a plasmid expressing the REV-ERBα and/or β protein. After 6 h from transfection, the medium was replaced with fresh medium containing different doses of the compounds or vehicle (DMSO). After 24 h post-transfection, the supernatant was analyzed for the secreted luciferase and AP activity according to the manufacture instruction. Data normalized as fold activation versus vehicle (DMSO) were fitted using a four-parameter dose-response curve to calculate the EC50 of the different compounds.
(§1) The different compounds were tested for their ability to inhibit the growth of the tumorigenic breast cancer cells BT-474 and for their antagonistic activity toward REV-ERB transcriptional repression, as described in the biological method section.
For the cell growth inhibition (GI) the growth inhibition 50 (GI50) and the growth inhibition max (GImax) are reported. […] The bottom plateaus of the curve was used to calculate the Growth Inhibition max (GImax), defined as the percentage of the reduction of cells after 48 h upon a saturating dose of the administered compound. Compounds with a GI50<100 μM were also tested for their antagonistic activity toward REV-ERB. […]

For data set [5], the system named is tumorigenic breast cancer cells BT-474. The experiment in a line: Growth inhibition assay (CyQUANT Cell Proliferation Assay) in BT-474 cells. It counts as cell-based. The settings on record: Homo sapiens; for GI50: 48 h, CyQUANT, read-out: Cell Growth Inibition GI50; for Emax: reduction of cells after 48 h at saturating dose, read-out: Cell Growth Inibition GImax.
From the text: Given that REV-ERB target genes include several metabolic regulators, such as Pgc-1α and Nampt, it was decided to test the cell proliferation with a method that is independent from the metabolic state of the cell.
The CyQUANT® Cell Proliferation Assay Kit (Invitrogen) was used, an assay that has a linear detection range extending from 50 or fewer to at least 250,000 cells.
Frozen cells are simply thawed and lysed by addition of a buffer containing the CyQUANT®.
For the assay, tumorigenic breast cancer cells BT-474 cells were seeded at 2500 cells per well in a 96-well plate and incubated over-night at 37° C. Then, fresh medium containing different concentration of the compounds or vehicle (DMSO) was added and cells were growth 48 h at 37° C. Finally, cells were frozen at […] and then processed according to the manufacture instructions. A minimum of triplicate data for each dose was used for the analysis.
Data were collected and analyzed with Prism 5 software to calculate the growth inhibition curve.
In particular, values obtained from the DMSO treated cells was set at 100% of growth. Data from treatment of cells with serial dilutions of the compounds were normalized versus the DMSO group and fitted using a four-parameter dose-response curve.
GI50 was calculated as the concentration of compound that gives a response half way between bottom and top plateaus of the fitted curve.
The bottom plateaus of the fitted curve was used to calculate the Growth Inhibition max (GImax), defined as the percentage of the reduction of cells after 48 h upon a saturating dose of compound.
as §1
For the cell growth inhibition (GI) the growth inhibition 50 (GI50) and the growth inhibition max (GImax) are reported. […] The bottom plateaus of the curve was used to calculate the Growth Inhibition max (GImax), defined as the percentage of the reduction of cells after 48 h upon a saturating dose of the administered compound. Compounds with a GI50<100 μM were also tested for their antagonistic activity toward REV-ERB. For these compounds, the EC50 value is provided, calculated as the concentration of compound that gives a response half between the bottom (expression of the reporter in absence of compound) and the top (expression of the reporter at saturating doses of compound) plateaus of the fitted curves (see biological method section for a description of the reported assay). n.d.=not determined; n.t.=not tested.

As for `CCOC(=O)C1Cc2ccccc2CN1C(=O)c1ccc(SC)s1` (stereo not drawn) [SR8278], the “effect on interaction of NCoR peptide with REV-ERBα (FRET)” value in data set [1] is “inhibit REV-ERBα LBD/NcoR interaction”. For the same compound, the pharmacokinetic properties result in data set [2] was “poor pharmacokinetic properties”.

As to `CCOC(=O)N1CCC(CN(Cc2ccc(Cl)cc2)Cc2ccc([N+](=O)[O-])s2)C1` (stereo not drawn) [SR9009], the “times more active toward LXRα than REV-ERBs” value in data set [3] is recorded as 100 times. Also, the metabolic clearance entry in data set [2] is on record as “high metabolic clearance rates”.

Consider `CC(C)(C)OC(=O)CN(Cc1ccc(Cl)cc1)Cc1ccc([N+](=O)[O-])s1` [GSK4112], for which the “effect on interaction of NCoR peptide with REV-ERBα (FRET)” value in data set [1] is “dose-dependently increase the interaction”. Moreover, in data set [3], the “activity on LXRα” value is “agonizes”. Moreover, the pharmacokinetic properties entry in data set [2] is recorded as “poor pharmacokinetic properties”.

As for `CCCCCNC(=O)N1CCC(CN(Cc2ccc(Cl)cc2)Cc2ccc([N+](=O)[O-])s2)C1` (stereo not drawn) [SR9011], in data set [3], the “times more active toward LXRα than REV-ERBs” value is given as 100 times. For the same compound, the metabolic clearance result in data set [2] is listed as “high metabolic clearance rates”.

With `Oc1ccc(CNC2(c3ccccc3F)CCCC2)cc1CN1CCN(Cc2ccccc2)CC1` [Example 12, 2-[(4-Benzylpiperazin-1-yl)methyl]-4-[[[1-(2-fluorophenyl)cyclopentyl]amino]-methyl]phenol trihydrochloride], the EC50 in data set [4] came out at 40 µM. Further, in data set [5], the GI50 came out at 23 µM and the Emax amounted to 77%.

In the case of `CN1CCN(Cc2cc(CNC3(c4cccs4)CCCC3)ccc2O)CC1` [Example 25, 2-[(4-Methylpiperazin-1-yl)methyl]-4-[[[1-(2-thienyl)cyclopentyl]amino]methyl]phenol trihydrochloride], in data set [4], the EC50 was 29 µM. In addition, in data set [5], the GI50 worked out at 18 µM and the Emax was found to be 70%.

With `CCN1CCN(Cc2cc(CNC3(c4ccccc4F)CCCC3)ccc2O)CC1` [Example 10, 2-[(4-Ethylpiperazin-1-yl)methyl]-4-[[[1-(2-fluorophenyl)cyclopentyl]amino]-methyl]phenol trihydrochloride], in data set [4], the EC50 stood at 25 µM. In data set [5], the GI50 was 15 µM and the Emax stood at 70%.

`CN1CCN(Cc2cc(CNC3(c4ccccc4F)CCN(Cc4ccccc4)CC3)ccc2O)CC1` [Example 20, 4-[[[1-Benzyl-4-(2-fluorophenyl)-4-piperidyl]amino]methyl]-2-[(4-methylpiperazin-1-yl)methyl]phenol tetrahydrochloride]: the EC50 in data set [4] is 12 µM. Moreover, in data set [5], the GI50 was 11 µM and the Emax was 92%.

The record behind these values is patent publication US9949968B2, “Diarylalkylamine REV-ERB antagonists and their use as medicaments” (FONDAZIONE ISTITUTO ITALIANO DI TECNOLOGIA, priority 2013, dated 2018).
